Laboratory results taken from patent US20070003987A1, “Screening method for substance binding to merozoite surface protein-1/42” (priority 2003, published 2007).

What was measured:
[1] = test system: P. falciparum (FCB-1); assay: growth inhibition assay by [3H] hypoxanthine uptake; format: cell-based, Plasmodium falciparum; conditions: 200 μM
Experimental: Asexual blood stages of P. falciparum (FCB-1) were maintained at 37° C. in RPMI 1640/Albumax medium (Gibco) supplemented with 2 mM L-glutamine as previously described (Blackman, 1994 Methods Cell Biol. 45, 213-220). Cultures were gassed with 7% CO2, 5% O2 and 88% N2 and maintained by routine passage in fresh human erythrocytes. Parasites were synchronised by Percoll and sorbitol treatment (Holder & Freeman, 1982 J. Exp. Med. 156, 1528-1538); schizonts were purified by centrifugation over Percoll and then returned to culture in the presence of fresh erythrocytes. After 4 h, during which time released merozoites invaded erythrocytes, the cells were treated with 5% sorbitol for 10 min to lyse the residual schizonts, before returning the parasites to culture.
Suramin and NTS were also assayed for P. falciparum growth inhibition using [^3H] hypoxanthine uptake (generally as described by Desjardins et al, 1979 Antimicrob. Agents Chemother. 16, 710-718). Serial dilutions of the compounds in 96-well plates were incubated at 37° C. with purified mature schizonts at a final parasitaemia of ^˜0.5% and a haematrocrit of ^˜2% in triplicate cultures. […] The filters were wetted with scintillation cocktail and the bound radioactivity counted in a β-counter. […] The amount of radioactivity in each sample was expressed as a percentage of activity in the control wells containing no compound. […]

[2] = target: T1, MSP142 (Plasmodium falciparum, UniProt Q8I0U8); assay: inhibition of suramin binding (fluorescence, 384-well plate); conditions: 10 μM analogue, 2 μM suramin, 0.1 mg/ml MSP142
Experimental: MSP142 (0.1 mg/ml), 10 μM suramin analogue and 2 μM suramin were combined in a 384-well black polypropylene low binding plate (total reaction volume 100 μL). Fluorescence was read at λex 320 nm/λem 405 nm on a BMG Polarstar fluorimeter. Readings were taken before, and 1 hour after, addition of suramin.
Target sequence in this assay (Q8I0U8 1327-1699): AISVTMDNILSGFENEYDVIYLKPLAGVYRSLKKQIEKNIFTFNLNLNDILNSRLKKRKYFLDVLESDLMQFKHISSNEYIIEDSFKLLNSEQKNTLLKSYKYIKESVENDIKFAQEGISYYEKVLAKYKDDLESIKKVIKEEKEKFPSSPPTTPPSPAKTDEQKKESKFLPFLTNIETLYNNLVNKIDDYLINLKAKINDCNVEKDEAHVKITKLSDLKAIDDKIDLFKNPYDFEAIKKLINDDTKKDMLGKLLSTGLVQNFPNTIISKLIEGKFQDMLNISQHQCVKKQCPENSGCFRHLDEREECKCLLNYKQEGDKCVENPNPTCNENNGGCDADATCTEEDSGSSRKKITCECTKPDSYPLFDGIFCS

[3] = titration of fluorescent analogues in PBS buffer only; format: physicochemical; conditions: 0.01-200 μM
Experimental: Analogues 258, 261, 264 and 266 were titrated against (a) PBS buffer only, (b) 0.1 mg/ml bovine serum albumin in PBS or (c) 0.1 mg/ml MSP142 in PBS. Fluorescence observed was compared to naphthalenetrisulphate (non-specific reagent) and suramin.

[4] = target: T1, MSP142; assay: P. falciparum MSP1 secondary processing assay (merozoites, Western blot); format: biochemical; design: Merozoites were purified as described previously; endogenous in cells; host or cells: purified P. falciparum merozoites released from mature schizonts; conditions: 1 mM, 1 h at 37° C.
Experimental: Merozoites were purified as described previously (Blackman 1994 Methods Cell Biol. 45, 213-220) after release from mature schizonts into growth medium supplemented with 2 mM EGTA. Merozoites were harvested by centrifugation, followed by sequential passage through pre-wetted filters of 3 and 1.2 μm pore size. Merozoites were washed in Ca^2+- and Mg^2+-free PBS in the presence of protease inhibitors (leupeptin, antipain and aprotinin at 10 μg ml^−1). The merozoites were then washed and resuspended in 50 mM Tris-HCl pH 7.2, 5 mM CaCl2, 1 mM MgCl2, plus leupeptin, antipain and aprotinin at 10 μg ml^−1 (processing buffer), and divided into 18 μl aliquots. Two microlitres of either diluted compound or reaction buffer were added and the samples incubated for 1 h at 37° C. Control assays included those in which processing was prevented by immediate addition of either SDS, 1 mM PMSF or 5 mM EGTA; and those in the absence of compound or in the presence of 0.2 mM TLCK (tosyl-L-lysyl chloromethyl ketone). After 1 h the reaction was stopped, and MSP1 processing was analysed using a Western blot-based assay (Blackman 1994 Methods Cell Biol. 45, 213-220). The blots were probed with a rabbit anti-MSP133/MSP142 antibody and the bands corresponding to MSP142 and MSP133 polypeptides were visualised by enhanced chemiluminescence.
Purified merozoites were incubated in the presence or absence of suramin or NTS and polypeptides subjected to SDS-PAGE and Western blotting.
Target sequence in this assay (Q8I0U8 20-1326): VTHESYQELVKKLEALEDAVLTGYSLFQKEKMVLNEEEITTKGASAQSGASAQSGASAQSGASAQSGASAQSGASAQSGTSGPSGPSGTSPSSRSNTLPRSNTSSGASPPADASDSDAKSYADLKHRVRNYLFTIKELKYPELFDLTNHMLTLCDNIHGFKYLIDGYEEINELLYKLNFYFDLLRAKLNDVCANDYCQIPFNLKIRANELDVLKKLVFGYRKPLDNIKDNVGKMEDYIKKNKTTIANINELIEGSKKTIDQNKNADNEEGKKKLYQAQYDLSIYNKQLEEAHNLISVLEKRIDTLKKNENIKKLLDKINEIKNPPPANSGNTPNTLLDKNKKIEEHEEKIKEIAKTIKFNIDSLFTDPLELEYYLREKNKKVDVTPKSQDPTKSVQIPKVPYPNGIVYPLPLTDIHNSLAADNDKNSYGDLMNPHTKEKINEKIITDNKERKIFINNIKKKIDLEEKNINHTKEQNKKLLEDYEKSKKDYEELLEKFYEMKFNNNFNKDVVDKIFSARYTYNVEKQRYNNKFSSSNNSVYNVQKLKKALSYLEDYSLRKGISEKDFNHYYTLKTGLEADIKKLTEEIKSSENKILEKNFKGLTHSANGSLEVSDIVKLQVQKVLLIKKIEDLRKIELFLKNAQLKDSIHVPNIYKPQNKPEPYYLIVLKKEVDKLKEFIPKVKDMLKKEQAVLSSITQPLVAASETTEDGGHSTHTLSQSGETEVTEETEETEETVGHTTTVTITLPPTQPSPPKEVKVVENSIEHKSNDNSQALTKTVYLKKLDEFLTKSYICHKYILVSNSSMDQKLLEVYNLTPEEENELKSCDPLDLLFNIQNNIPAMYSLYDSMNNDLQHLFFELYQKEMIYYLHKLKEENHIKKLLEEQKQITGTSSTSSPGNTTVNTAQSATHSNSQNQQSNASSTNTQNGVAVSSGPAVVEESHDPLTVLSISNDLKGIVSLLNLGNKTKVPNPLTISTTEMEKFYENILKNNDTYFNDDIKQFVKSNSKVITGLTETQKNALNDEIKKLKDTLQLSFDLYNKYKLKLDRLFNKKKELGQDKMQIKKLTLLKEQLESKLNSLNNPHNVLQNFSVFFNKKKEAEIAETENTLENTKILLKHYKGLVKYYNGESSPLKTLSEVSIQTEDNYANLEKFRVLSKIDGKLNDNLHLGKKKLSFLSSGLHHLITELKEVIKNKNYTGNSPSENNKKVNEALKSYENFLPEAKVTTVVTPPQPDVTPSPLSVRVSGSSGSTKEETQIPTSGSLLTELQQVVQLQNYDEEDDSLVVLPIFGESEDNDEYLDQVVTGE
Target sequence in this assay (Q8I0U8 1327-1699): as the sequence (Q8I0U8 1327-1699) above

SMILES	inhibition of invasion at the highest concentration tested [1]	effect on the fluorescent signal of suramin / own fluorescence [2]	fluorescence in buffer alone [3]	inhibition of MSP142 secondary processing [4]
O=S(=O)(O)c1ccc2c(S(=O)(=O)O)cc(S(=O)(=O)O)cc2c1 [NTS, Naphthalene-1,3,6-trisulphonic acid]	did not inhibit invasion	most fluorescent compound tested	fluorescent in buffer alone	–
O=S(=O)(F)Cc1ccccc1 [PMSF]	–	–	–	absence of MSP133
